This note sets out measurements from article PMC6722010 (Molecular pharmaceutics, 2019).

The structures appear in SMILES notation.

One series has as its system PSMA. Briefly: in vivo 68Ga-PSMA-11 blocking, PET imaging and biodistribution. The following applies: 22Rv1 xenograft mice; organs gamma counted.
The nature of another series: solubility. It is filed as physicochemical. The following applies: water / buffer.

As to `N[C@@H](Cc1ccc(B(O)O)cc1)C(=O)O` [BPA, 4-borono-L-phenylalanine], the “68Ga-PSMA-11 biodistribution, uptake in kidney, spleen and tumor” value in the series with PSMA is on record as “did not significantly block uptake”. Moreover, the solubility result in the series “solubility” is on record as “low solubility in buffer”.
